Laboratory results as given in US5041552A, “Amino acid derivatives with angiotensin II antagonist properties” (Warner-Lambert Company, priority 1990, dated 1991).

biological target: T1, angiotensin II receptor (rat liver membranes) (Rattus norvegicus, UniProt P25095); assay: Receptor Binding of Angiotensin II (RBAT): inhibition of tritiated angiotensin II binding to rat liver membranes; conditions: in vitro, read-out: RBAT IC50 (concentration required to displace 50% of the specifically bound tritiated angiotensin II)
T1 construct: rat liver membranes; from tissue; host or cells: rat liver membranes
T1 sequence (P25095 1-359): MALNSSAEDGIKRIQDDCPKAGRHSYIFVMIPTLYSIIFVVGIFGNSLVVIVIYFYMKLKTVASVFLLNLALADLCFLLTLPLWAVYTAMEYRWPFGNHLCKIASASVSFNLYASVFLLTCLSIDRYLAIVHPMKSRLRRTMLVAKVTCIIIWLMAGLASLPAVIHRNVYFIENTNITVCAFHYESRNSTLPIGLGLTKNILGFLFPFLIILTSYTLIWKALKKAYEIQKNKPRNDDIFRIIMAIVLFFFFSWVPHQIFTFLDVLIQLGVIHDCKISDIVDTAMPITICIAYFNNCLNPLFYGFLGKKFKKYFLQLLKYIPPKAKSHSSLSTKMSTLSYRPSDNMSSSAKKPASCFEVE
Description: The effectiveness of the compounds of the instant invention is determined by a test (RBAT) entitled Receptor Binding of Angiotensin II. In this in vitro test the inhibition of tritiated angiotensin II binding to rat liver membranes is measured.
*The IC50 is a concentration required to displace 50% of the specifi
bound tritiated angiotensin II.

First: CCSc1nnc(CO)n1Cc1ccc(NC(=O)[C@H](CC(=O)O)NC(=O)OCc2ccccc2)cc1 [Example 9]
Second: CCCCc1nc(Cl)c(CO)n1Cc1ccc(NC(=O)C(NC(=O)OCc2ccccc2)C(=O)O)cc1 (racemic) [Example 13, (RS)-3-[[4-[[2-Butyl-4-chloro-5-(hydroxymethyl)-1H-imidazol-1-yl-methyl]phenyl]amino]-3-oxo-2[(phenyl-methoxy)-carbonyl]amino]-propanoic acid]
The IC50 of the first is higher: over 10 µM for the first, 10 µM for the second.

`CCCCc1nc(Cl)c(CO)n1Cc1ccc(NC(=O)[C@H](CC#N)NC(=O)OCc2ccccc2)cc1` [Example 5, (S)-[2-[[4-[[2-Butyl-4-chloro-5-(hydroxymethyl)-1H-imidazol-1-yl]methyl]phenyl]amino]-1-(cyanomethyl)-2-oxoethyl]-carbamic acid, phenylmethyl ester] and `CCCCc1nc(Cl)c(CO)n1Cc1ccc(NC(=O)[C@H](CC(=O)OC(C)(C)C)NC(=O)OCc2ccccc2)cc1` [Example 7] are within 1.5-fold of each other in IC50: 3 µM for the first, 4 µM for the second.

`CCCCc1nc(Cl)c(CO)n1Cc1ccc(NC(=O)[C@H](Cc2ccccc2)NS(=O)(=O)N2CCOCC2)cc1` [Example 16] and `CCCCc1nc(Cl)c(CO)n1Cc1ccc(NC(=O)[C@H](Cc2ccccc2)NS(=O)(=O)c2ccccc2)cc1` [Example 17] are within 1.5-fold of each other in IC50: 2.5 µM for the first, 3.6 µM for the second.

First: CCCCc1ncc(CO)n1Cc1ccc(NC(=O)[C@H](Cc2ccc(O)cc2)NC(=O)OC(C)(C)C)cc1 [Example 6, (S)-[2-[[4-[[2-butyl-5-(hydroxymethyl)-1H-imidazol-1-yl]methyl]phenyl]amino]-1-[(4-hydroxyphenyl)methyl]-2-oxoethyl]-carbamic acid, 1,1-dimethylethylester]
Second: CCCCc1nc(Cl)c(CO)n1Cc1ccc(NC(=O)[C@H](Cc2ccc(O)cc2)NC(=O)OC(C)(C)C)cc1 [6 (4-Chloro), (S)-[2-[[4-[[2-Butyl-4-chloro-5-(hydroxymethyl)-1H-imidazol-1-yl]methyl]phenyl]amino]-1-[(4-hydroxyphenyl)methyl]-2-oxoethyl]-carbamic acid, 1,1-dimethylethyl ester]
The IC50 of the first is 1.5-fold higher: 4.5 µM for the first, 3 µM for the second.

First: CCCCc1nc(Cl)c(CO)n1Cc1ccc(NC(=O)N2CCC[C@H]2C(=O)OC)cc1 [Example 18, 1-[[4-[[2-Butyl-4-chloro-5-(hydroxymethyl)-1H-imidazol-1-yl]methyl]phenyl]amino]carbonyl-2-pyrrolidinecarboxylic acid, methyl ester]
Second: CCCCc1nc(Cl)c(CO)n1Cc1ccc(NC(=O)C(NC(=O)OC(C)(C)C)C(=O)O)cc1 (racemic) [Example 11]
The IC50 of the first is higher: over 10 µM for the first, 6 µM for the second. The second is the more potent here.
